Results published in patent US5972625A, “Assays for inhibitors of leukocyte adhesion” (The Regents of the University of California, priority 1997, dated 1999).

Columns and labels:
[1] = target: P-selectin; experiment: Inhibition of P-selectin binding to GlyCAM-1 (ELISA with P-selectin-IgG chimera)
Protocol: (§1) The CAMO2 antibody is diluted to a concentration of 1.6 μg/ml in PBS with 0.1% NaN3, and 100 μl of this solution is dispensed into each well of a 96-well plate. The plate is incubated overnight at 4° C. to allow adsorption of the antibody onto the solid support. The plate is then washed three times with PBS containing 0.1% tween, and blocked with 200 μl/well of a 3% solution of BSA in PBS for 2 hours at room temperature.
(§2) A crude GlyCAM-1 preparation is produced by extracting mouse serum with chloroform/methanol solution, followed by dialysis against PBS. After removing the blocking solution, 100 μl of this solution is dispensed into each well, and the plate is incubated for 1 hour at room temperature.
Chimeric molecules of the invention and more specifically, complexes of P-selection with a secondary antibody and streptavidin-alkaline phosphates are formed as follows:
4 μg/ml P-selectin-IgG chimera
(§3) 2/1000 dilution of biotinylated goat anti-human Fc F(ab')2 (Caltag)
(§4) 2/1000 dilution of streptavidin-alkaline phosphatase (Caltag)
(§5) In PBS with 0.2% BSA and 5% normal rabbit serum
(§6) Assays as per Example 1-3 were used to determine IC50 's for the inhibition of L-, P- or E-selectin binding to GlyCAM-1 for a number of compounds.

[2] = target: L-selectin; experiment: Inhibition of L-selectin binding to GlyCAM-1 (ELISA with L-selectin-IgG chimera); conditions: for Interaction of L-selectin with GlyCAM-1: FIG. 6, result in words
Protocol: as §1, §2
Chimeric molecules of the invention and more specifically, complexes of L-selectin with a secondary antibody and streptavidin-alkaline phosphates are formed as follows:
2 mg/ml L-selectin-IgG chimera
as §3, §4
In PBS with 2% BSA and 5% normal rabbit serum
In a separate 96-well plate, 80 μl of serial dilutions of the test inhibitors dissolved in PBS are dispensed into each well. To each inhibitor-containing well is added 80 μl of the selectin-IgG/antibody/streptavidin-alkaline phosphatase complex solution. The plate is then incubated for 30 minutes at 4° C.
The plate containing CAMO2 antibody and captured GlyCAM-1 is washed three times with PBS/0.1% TWEEN detergent, and […] of each selectin complex/inhibitor mixture is transferred to the wells of the GlyCAM-containing plate. This plate is then incubated for 30 minutes at room temperature.
Finally, the solutions are removed from the GlyCAM-1 plate and the plate is washed three times with PBS/0.1% TWEEN detergent. […] of alkaline phosphatase substrate solution (p-nitrophenyl phosphate in ethanolamine/MgCl2) buffer is added to each well to detect the presence of bound selectin complex and the plate is quantified with a 96-well plate reader at 405 nm.

[3] = target: E-selectin; experiment: Inhibition of E-selectin binding to GlyCAM-1 (ELISA with E-selectin-IgG chimera)
Protocol: as §1, §2
Chimeric molecules of the invention and more specifically, complexes of E-selection with a secondary antibody and streptavidin-alkaline phosphates are formed as follows:
4 μg/ml E-selectin-IgG chimera
as §3, §4, §5, §6

[4] = tested on: lymphocyte attachment to HEV; conditions: literature; cited from earlier work
[5] = target: T1, L-selectin (Homo sapiens, UniProt P14151); conditions: without sulfate; cited from earlier work
T1 sequence (P14151 39-372): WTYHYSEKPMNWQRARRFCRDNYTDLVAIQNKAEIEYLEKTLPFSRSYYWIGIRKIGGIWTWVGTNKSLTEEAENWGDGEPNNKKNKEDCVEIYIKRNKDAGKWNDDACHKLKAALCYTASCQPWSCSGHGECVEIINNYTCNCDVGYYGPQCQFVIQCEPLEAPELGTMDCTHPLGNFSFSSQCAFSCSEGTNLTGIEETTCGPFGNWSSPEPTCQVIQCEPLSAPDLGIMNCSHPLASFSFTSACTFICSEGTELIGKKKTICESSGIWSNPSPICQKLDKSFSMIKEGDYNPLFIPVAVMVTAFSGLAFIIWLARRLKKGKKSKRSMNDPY

[6] = tested on: L-selectin, P-selectin and E-selectin; experiment: Binding of serum GlyCAM-1 to each of the different selectins; conditions: Ig chimeras of the three selectins
Source text: (See FIG. 5). […] These specific conditions are described in detail in Examples 1-3.

3'-sulfo Lewis a
IC50 [1]: 140 µM
IC50 ([2]; L-selectin): 1.7 mM
IC50 [3]: 4 mM

O=S(=O)(O)OC[C@H]1O[C@@H](O[C@H]2[C@H](O)[C@@H](O)C(O)O[C@@H]2CO)[C@H](O)[C@@H](OS(=O)(=O)O)[C@H]1OS(=O)(=O)O (stereo partly drawn) [3',4',6'-trisulfo lactose]
IC50 ([2]; L-selectin): 0.2 mM

O=S(=O)(O)OC[C@H]1O[C@@H](O[C@H]2[C@H](O)[C@@H](O)C(O)O[C@@H]2CO)[C@H](O)[C@@H](OS(=O)(=O)O)[C@H]1O (stereo partly drawn) [3',6'-disulfo lactose]
IC50 ([2]; L-selectin): 0.4 mM

CC(=O)N[C@H]1C(O)O[C@H](CO)[C@@H](O[C@@H]2O[C@H](CO)[C@H](O)[C@H](OS(=O)(=O)O)[C@H]2O)[C@@H]1O[C@@H]1O[C@@H](C)[C@@H](O)[C@@H](O)[C@@H]1O (stereo partly drawn) [3'-sulfo Lewis x]
IC50 [1]: 3000 µM
IC50 ([2]; L-selectin): 3 mM
IC50 [3]: 4 mM

O=S(=O)(O)OC[C@H]1O[C@@H](O[C@H]2[C@H](O)[C@@H](O)C(O)O[C@@H]2CO)[C@H](O)[C@@H](O)[C@H]1O (stereo partly drawn) [6'-sulfo lactose]
IC50 ([2]; L-selectin): 10 mM

O=C(O)CN(CCN(CC(=O)O)CC(=O)O)CC(=O)O [EDTA]
Interaction of L-selectin with GlyCAM-1 [2]: inhibited

O=P(O)(O)OC[C@H]1OC(O)[C@@H](O)[C@@H](O)[C@@H]1O (stereo partly drawn) [mannose-6-phosphate]
Lymphocyte attachment to HEV [4]: prevent lymphocyte attachment to HEV
Interaction of L-selectin with GlyCAM-1 [2]: inhibited
IC50 ([2]; L-selectin): 1.5 mM

O=P(O)(O)O[C@H]1[C@H](OP(=O)(O)O)[C@@H](OP(=O)(O)O)[C@H](OP(=O)(O)O)[C@@H](OP(=O)(O)O)[C@H]1OP(=O)(O)O [phytic acid]
IC50 [1]: 0.2 µM
IC50 ([2]; L-selectin): 0.002 mM

fucoidan
IC50 for the inhibition of P-selectin binding to GlyCAM-1 [1]: 0.02 µg/mL
Lymphocyte attachment to HEV [4]: active
Interaction of L-selectin with GlyCAM-1 [2]: inhibited
IC50 for the inhibition of L-selectin binding to GlyCAM-1 ([2]; L-selectin): 0.2 µg/mL

sialyl Lewis^x oligosaccharide [sLe^x]
Affinity for L-selectin [5]: very low affinity

B1: GlyCAM-1: a sulfated, fucosylated and sialylated glycoprotein of about 50 kd now termed GlyCAM-1 (protein, UniProt Q02596 20-151, looked up)
Glycosylation-dependent cell …: LPGSKDELQMKTQPTDAIPAAQSTPTSYTSEESTSSKDLSKEPSIFREELISKDNVVIESTKPENQEAQDGLRSGSSQLEETTRPTTSAATTSEENLTKSSQTVEEELGKIIEGFVTGAEDIISGASRITKS
Binding of serum GlyCAM-1 to the selectins [6]: will bind to each of the different selectins
